Results: US20240049725A1, “CO[…] OTHER IN[…] AND USES THEREOF” (SYNGENTA CROP PROTECTION AG, priority 2020, published 2024)
Positions of bridges follow the written chain, without caps; N, C: chain ends. Residues, ends and D or L forms follow the SMILES beside them.

Assays:
[1] = system: larvae of Helicoverpa armigera; conditions: Jennings et al, 2005; cited from earlier work
Spodoptera littoralis L1 = assay: leaf disc spray test on Gossypium hirsutum, mortality of Spodoptera littoralis L1 larvae; type: in vivo; conditions: 10000 ppm, Abbott-corrected
Method: (§1) Gossypium hirsutum leaf discs with a 5 cm diameter were cut out and placed in a Petri dish which was prepared with 3 filter paper and 800 μl water. 100 μl of test solution was applied on the lower surface by spraying and dried to air. Next, the leaf was flipped and 100 μl of test solution was applied on the upper surface by spraying and dried to air. The leaf was infested with 10 L1 larvae of Spodoptera littoralis, after which the dish was closed with a cotton filter and a plastic lid. The Petri dish was placed in a climate chamber at a temperature of 25° C., a relative humidity of 65% and with no artificial light cycle. Two days after infestation 200 μl water was added to the Petri dish. Four days after infestation 500 μl water was added to the Petri dish. Three Petri dishes were assessed per treatment.

Plutella xylostella L1 = assay: leaf disc spray test on Brassica chinensis, mortality of Plutella xylostella L1 larvae; type: in vivo; conditions: Abbott-corrected
Method: as §1, with “Brassica chinensis leaf discs” for “Gossypium hirsutum leaf discs”, “The leaf 3 was infested” for “The leaf was infested”, “larvae of Plutella xylostella, after which” for “larvae of Spodoptera littoralis, after which”, “light cycle. Four days” for “light cycle. Two days after infestation 200 μl water was added to the Petri dish. Four days”, “after infestation 150 μl water” for “after infestation 500 μl water”

Plutella xylostella L3 = assay: leaf disc spray test on Brassica chinensis, mortality of Plutella xylostella L3 larvae; type: in vivo; conditions: Abbott-corrected
Method: as §1, with “Brassica chinensis” for “Gossypium hirsutum”, “L3” for “L1”, “larvae (6-7 days old)” for “larvae”, “Plutella xylostella,” for “Spodoptera littoralis,”, “cycle.” for “cycle. Two days after infestation 200 μl water was added to the Petri dish.”, “150” for “500”

Cydia pomonella L1 = assay: artificial diet test in 24-well plate, mortality of Cydia pomonella L1 larvae; type: in vivo; conditions: 10000 ppm; Table E; Abbott-corrected
Method: An artificial diet was prepared. 1.5 ml of artificial diet was applied in a well of a 24-well plate followed by 50 μl of test solution by spraying. The well-plate was infested with 1 L1 larva of Cydia pomonella per well, after which the plate was closed with a carton filter and a metal lid. The 24-well plate was placed in a climate chamber at a temperature of 25° C., a relative humidity of 65% and with no artificial light cycle. Five wells (replicates) were assessed per treatment.

[2] = system: crustaceans, cockroaches, blow fly larvae and Helicoverpa armigera; conditions: in vivo; cited from earlier work

For `CC(C)C[C@@H]1NC(=O)CNC(=O)[C@H](CC(N)=O)NC(=O)[C@H](CCCNC(=N)N)NC(=O)[C@H]([C@@H](C)O)NC(=O)[C@@H]2CSSC[C@@H]3NC(=O)[C@H]([C@@H](C)O)NC(=O)CNC(=O)CNC(=O)[C@H](C(C)C)NC(=O)[C@@H]4CSSC[C@H](NC(=O)[C@H]([C@@H](C)O)NC(=O)[C@H](CSSC[C@H](NC(=O)[C@H](C(C)C)NC(=O)[C@@H]5CCCN5C1=O)C(=O)NCC(=O)N[C@@H](CCC(=O)O)C(=O)N[C@@H]([C@@H](C)O)C(=O)N4)NC(=O)CNC(=O)[C@@H]1CCCN1C(=O)[C@H]([C@@H](C)O)NC(=O)[C@H](CC(N)=O)NC3=O)C(=O)N[C@@H](CO)C(=O)N[C@@H](Cc1c[nH]c3ccccc13)C(=O)N1CCC[C@H]1C(=O)N[C@@H](C(C)C)C(=O)N2` [SEQ ID NO: 1 (kB1), Kalata B1], the “insecticidal activity against the larvae of Helicoverpa armigera” value [1] is listed as “potent insecticidal activity”, the “observed mortality of Spodoptera littoralis L1, 1 d after infestation” value (Spodoptera littoralis L1; Table A) is listed as 0% and the “observed mortality of Spodoptera littoralis L1, 2 d after infestation” value (Spodoptera littoralis L1; Table A) is listed as 35%. The “observed mortality of Spodoptera littoralis L1, 3 d after infestation” value (Spodoptera littoralis L1; Table A) was 29%, the “observed mortality of Spodoptera littoralis L1, 6 d after infestation” value (Spodoptera littoralis L1; Table A) was 32% and the “observed mortality of Spodoptera littoralis L1, 1 d after infestation” value (Spodoptera littoralis L1; Table G) was 5%. The “observed mortality of Spodoptera littoralis L1, 2 d after infestation” value (Spodoptera littoralis L1; Table G) was 25%, the “observed mortality of Spodoptera littoralis L1, 3 d after infestation” value (Spodoptera littoralis L1; Table G) was 36% and the “observed mortality of Plutella xylostella L1, 1 d after infestation” value (Plutella xylostella L1; 625 ppm, Table B1) was 0%. The “observed mortality of Plutella xylostella L1, 2 d after infestation” value (Plutella xylostella L1; 625 ppm, Table B1) was 0%, the “observed mortality of Plutella xylostella L1, 3 d after infestation” value (Plutella xylostella L1; 625 ppm, Table B1) was 3% and the “observed mortality of Plutella xylostella L1, 4 d after infestation” value (Plutella xylostella L1; 625 ppm, Table B1) was 14%. For the same compound, the “observed mortality of Plutella xylostella L1, 7 d after infestation” value (Plutella xylostella L1; 625 ppm, Table B1) was 17%, the “observed mortality of Plutella xylostella L1, 1 d after infestation” value (Plutella xylostella L1; 625 ppm, Table C) was 0% and the “observed mortality of Plutella xylostella L1, 2 d after infestation” value (Plutella xylostella L1; 625 ppm, Table C) was 11%. The “observed mortality of Plutella xylostella L1, 3 d after infestation” value (Plutella xylostella L1; 625 ppm, Table C) was 9%, the “observed mortality of Plutella xylostella L1, 4 d after infestation” value (Plutella xylostella L1; 625 ppm, Table C) was 22% and the “observed mortality of Plutella xylostella L1, 6 d after infestation” value (Plutella xylostella L1; 625 ppm, Table C) was 20%. The “observed mortality of Plutella xylostella L3, 1 d after infestation” value (Plutella xylostella L3; 2500 ppm, Table D) was 0%, the “observed mortality of Plutella xylostella L3, 2 d after infestation” value (Plutella xylostella L3; 2500 ppm, Table D) was 0% and the “observed mortality of Plutella xylostella L3, 3 d after infestation” value (Plutella xylostella L3; 2500 ppm, Table D) was 3%. The “observed mortality of Plutella xylostella L3, 4 d after infestation” value (Plutella xylostella L3; 2500 ppm, Table D) was 20%, the “observed mortality of Plutella xylostella L3, 1 d after infestation” value (Plutella xylostella L3; 5000 ppm, Table D) was 0% and the “observed mortality of Plutella xylostella L3, 2 d after infestation” value (Plutella xylostella L3; 5000 ppm, Table D) was 0%. For the same compound, the “observed mortality of Plutella xylostella L3, 3 d after infestation” value (Plutella xylostella L3; 5000 ppm, Table D) was 3%, the “observed mortality of Plutella xylostella L3, 4 d after infestation” value (Plutella xylostella L3; 5000 ppm, Table D) was 37% and the “observed mortality of Plutella xylostella L3, 1 d after infestation” value (Plutella xylostella L3; 5000 ppm, Table F) was 0%. The “observed mortality of Plutella xylostella L3, 2 d after infestation” value (Plutella xylostella L3; 5000 ppm, Table F) was 0%, the “observed mortality of Plutella xylostella L3, 3 d after infestation” value (Plutella xylostella L3; 5000 ppm, Table F) was 22% and the “observed mortality of Cydia pomonella L1, 1 d after infestation” value (Cydia pomonella L1) was 20%. The “observed mortality of Cydia pomonella L1, 2 d after infestation” value (Cydia pomonella L1) was 20%, the “observed mortality of Cydia pomonella L1, 3 d after infestation” value (Cydia pomonella L1) was 20% and the “observed mortality of Cydia pomonella L1, 4 d after infestation” value (Cydia pomonella L1) was 20%. For the same compound, the “observed mortality of Cydia pomonella L1, 7 d after infestation” value (Cydia pomonella L1) was 20%.
For `CC[C@H](C)[C@@H]1NC(=O)[C@@H]2CCCN2C(=O)[C@H](Cc2c[nH]c3ccccc23)NC(=O)[C@H]([C@@H](C)O)NC(=O)[C@@H]2CSSC[C@@H]3NC(=O)[C@H]([C@@H](C)O)NC(=O)[C@H](CCC(=O)O)NC(=O)CNC(=O)[C@@H]4CSSC[C@H](NC(=O)CNC(=O)[C@@H]5CCCN5C(=O)[C@H]([C@@H](C)O)NC(=O)[C@H](CC(N)=O)NC(=O)[C@H](CSSC[C@H](NC1=O)C(=O)N[C@@H]([C@@H](C)O)C(=O)N[C@@H](CCCNC(=N)N)C(=O)N[C@@H](CC(=O)O)C(=O)NCC(=O)N[C@@H](CC(C)C)C(=O)N1CCC[C@H]1C(=O)N[C@@H](C(C)C)C(=O)N4)NC(=O)[C@H]([C@@H](C)O)NC(=O)CNC(=O)CNC(=O)[C@H](Cc1ccccc1)NC3=O)C(=O)N[C@@H](CO)C(=O)N2` [SEQ ID NO: 2 (kB2), Kalata B2] (cyclo(CFGGTCNTPGCSCTWPICTRDGLPVCGET); disulfide 1-13, 6-18, 11-26 (inferred); ring closure inferred), the “insecticidal activity against the larvae of Helicoverpa armigera” value [1] is listed as “potent insecticidal activity”, the “observed mortality of Plutella xylostella L1, 1 d after infestation” value (Plutella xylostella L1; 157 ppm, Table B2) is listed as 0% and the “observed mortality of Plutella xylostella L1, 2 d after infestation” value (Plutella xylostella L1; 157 ppm, Table B2) is listed as 0%. For the same compound, the “observed mortality of Plutella xylostella L1, 3 d after infestation” value (Plutella xylostella L1; 157 ppm, Table B2) was 0%, the “observed mortality of Plutella xylostella L1, 4 d after infestation” value (Plutella xylostella L1; 157 ppm, Table B2) was 0% and the “observed mortality of Plutella xylostella L1, 7 d after infestation” value (Plutella xylostella L1; 157 ppm, Table B2) was 0%. For the same compound, the “observed mortality of Plutella xylostella L1, 1 d after infestation” value (Plutella xylostella L1; 625 ppm, Table C) was 0%, the “observed mortality of Plutella xylostella L1, 2 d after infestation” value (Plutella xylostella L1; 625 ppm, Table C) was 0% and the “observed mortality of Plutella xylostella L1, 3 d after infestation” value (Plutella xylostella L1; 625 ppm, Table C) was 4%. The “observed mortality of Plutella xylostella L1, 4 d after infestation” value (Plutella xylostella L1; 625 ppm, Table C) was 4% and the “observed mortality of Plutella xylostella L1, 6 d after infestation” value (Plutella xylostella L1; 625 ppm, Table C) was 0%.
In the case of `CC(C)[C@H](NC(=O)[C@H](CCCCN)NC(=O)[C@@H]1CCCN1C(=O)CNC(=O)[C@H](CO)NC(=O)[C@@H]1CSSC[C@@H]2NC(=O)[C@@H]3CCCN3C(=O)[C@@H]3CSSC[C@H](NC(=O)CNC(=O)CNC(=O)[C@H](Cc4c[nH]c5ccccc45)NC(=O)[C@H](Cc4ccc(O)cc4)NC2=O)C(=O)N2CCC[C@H]2C(=O)N[C@@H](Cc2c[nH]c4ccccc24)C(=O)NCC(=O)N[C@@H](CCC(N)=O)C(=O)N[C@@H](CC(N)=O)C(=O)N[C@@H](CSSC[C@H](NC(=O)[C@H](CO)NC(=O)[C@@H](N)CCCNC(=N)N)C(=O)N3)C(=O)N[C@@H](Cc2ccc(O)cc2)C(=O)N2CCC[C@H]2C(=O)N[C@@H](CCC(=O)O)C(=O)NCC(=O)N1)C(=O)O` [SEQ ID NO: 4 (Av3), Av3], the “toxicity to crustaceans, cockroaches, blow fly larvae and Helicoverpa armigera” value [2] is given as “toxic”.
For `CC(C)C[C@@H]1NC(=O)CNC(=O)[C@H](CC(N)=O)NC(=O)[C@H](CCCNC(=N)N)NC(=O)[C@H]([C@@H](C)O)NC(=O)[C@@H]2CSSC[C@@H]3NC(=O)[C@H]([C@@H](C)O)NC(=O)CNC(=O)CNC(=O)[C@H](C(C)C)NC(=O)[C@@H]4CSSC[C@H](NC(=O)[C@H]([C@@H](C)O)NC(=O)[C@H](CSSC[C@H](NC(=O)[C@H](C(C)C)NC(=O)[C@@H]5CCCN5C1=O)C(=O)NCC(=O)N[C@@H](CCC(=O)O)C(=O)N[C@@H]([C@@H](C)O)C(=O)N4)NC(=O)CNC(=O)[C@@H]1CCCN1C(=O)[C@H]([C@@H](C)O)NC(=O)[C@H](CC(N)=O)NC3=O)C(=O)N[C@@H](CO)C(=O)N[C@@H](Cc1c[nH]c3ccccc13)C(=O)N1CCC[C@H]1C(=O)N[C@@H](CCCCN)C(=O)N2` [SEQ ID NO: 6 (kB1[V25K]), Mutated kB1 (kB1[V25K])] (cyclo(CGETCVGGTCNTPGCTCSWPKCTRNGLPV); disulfide 1-15, 5-17, 10-22 (inferred); ring closure inferred), the “observed mortality of Plutella xylostella L1, 1 d after infestation” value (Plutella xylostella L1; 625 ppm, Table C) was 0%, the “observed mortality of Plutella xylostella L1, 2 d after infestation” value (Plutella xylostella L1; 625 ppm, Table C) was 0% and the “observed mortality of Plutella xylostella L1, 3 d after infestation” value (Plutella xylostella L1; 625 ppm, Table C) was 0%. For the same compound, the “observed mortality of Plutella xylostella L1, 4 d after infestation” value (Plutella xylostella L1; 625 ppm, Table C) was 0% and the “observed mortality of Plutella xylostella L1, 6 d after infestation” value (Plutella xylostella L1; 625 ppm, Table C) was 0%.
